Results taken from patent US6472541B2, “Protecting groups with increased photosensitivities” (The Regents of the University of California, priority 1998, dated 2002).
Structures can show the parent of a compound that is named as a salt.

Columns and labels:
[1] = One-photon photolysis quantum efficiency (UV irradiation, HPLC analysis); assay type: physicochemical
Method: (§1) The electronic absorption and emission properties of the compounds were measured and the stability of the compounds toward hydrolysis in the dark was tested. Stability in the dark can be used to help identify photolabile protecting groups that can be used in a variety of different conditions. Specifically, the quantum efficiencies for one-photon excitation and rates of hydrolysis in the dark were determined.
[…] The duration of each irradiation period was controlled by an electronic shutter. Between each irradiation, a small aliquot (10 μL) of the solution was removed for analysis by reversed phase HPLC with a Betabasic-18 column eluted with a isocratic mixture of 60% acetonitrile and water containing 0.1% trifluoracetic acid at a flow rate of 0.8 mL/min, using absorbance detection at 325 nm. […] […] Quantum efficiencies were calculated as (Iσt90%)^−1, where I is the irradiation intensity in einsteins (cm^−2s^−1), σ is the decadic extinction coefficient in cm^2mol^−1 (10^3 times ε, the usual extinction coefficient in M^−1cm^−1), and t90% is the irradiation time in seconds for 90% conversion to product. […] Dark hydrolysis rates were measured similarly except without illumination.

[2] = Electronic absorption and emission properties; assay type: physicochemical; settings: for λmax Wavelength of peak absorbance: pH 7.2; for ε Molar absorptivity at absorbance peak: pH 7.2, at absorbance peak
Method: Generally, chemicals and solvents were used directly as received unless otherwise noted. Acetonitrile, chloroform and dichloromethane were dried over 4A molecular sieves. Proton magnetic resonance spectra (^1H NMR) were recorded on a Gemini 200 MHz spectrometer (Varian; Palo Alto, Calif.) and reported in ppm (δ) downfield from tetramethylsilane with residual solvent peaks as the internal standards. Ultraviolet spectra were recorded on a Cary 3E UV-Visible spectrophotometer (Varian, Palo Alto, Calif., USA). Fluorescence spectra were recorded on a Fluorolog spectrofluorometer (SPEX; Edison, N.J., USA). Mass spectra were recorded on a electrospray mass spectrometer (5989B, Hewlett-Packard; Palo Alto, Calif., USA). Thin layer chromatography (TLC) and column chromatography were performed on precoated silica gel 60F-254 plates and 230-400 mesh silica gel 60 respectively (EM Separations; Gibbstown, N.J., USA). All manipulations of compounds sensitive to near ultraviolet light were performed under an orange safety lamp.
as §1

rat cortical neurons = assay: One-photon UV uncaging of caged glutamate on brain slices, neuronal responses; assay type: cell-based; settings: one-photon UV uncaging at 365 nm, 10 mW, average
Method: The photolabile protecting groups can be uncaged by one-photon or two-photon photolysis. One-photon ultraviolet uncaging experiments were carried out on brain slices. In particular, compound 7 was used to deliver glutamate to rat cortical neurons. One-photon UV uncaging of caged glutamate compound at 365 nm released the glutamate. Neuronal responses were measured after directly stimulating cells as described in Sawatari and Callaway, Nature 380:442-446 (1996). The cells were exposed to compound 7 (Bhc-Glu) or γ-(α-carboxy-2-nitrobenzyl)glutamate, trifluoroacetate salt (compound 1, CNB-glutamate). The one-photon uncaging was carried out as described in FIG. 1 depicts the lower power needed to uncage compound 7 (Bhc-Glu) in the neuron sample in comparison to compound 1 (alpha-carboxy nitrobenzyl-caged glutamate, CNB-Glu). At 10 mW the compound 7-stimulated neurons respond, on average, at amplitudes 80% of their maximum, while compound 1-stimulated neurons are responding at less than 20% of their maximum amplitudes.

[3] = Hydrolysis in the dark (dark stability); assay type: physicochemical; settings: buffered solution, read-out: t0.5 Half-life for hydrolysis in the dark (converted)
Method: as §1
The photolysis quantum efficiencies for one-photon excitation were determined by irradiating a buffered solution of the substrate with 365 nm ultraviolet light from a B-100 mercury lamp (Spectronics Corp., Westbury, N.Y.). The duration of each irradiation period was controlled by an electronic shutter. Between each irradiation, a small aliquot (10 μL) of the solution was removed for analysis by reversed phase HPLC with a Betabasic-18 column eluted with a isocratic mixture of 60% acetonitrile and water containing 0.1% trifluoracetic acid at a flow rate of 0.8 mL/min, using absorbance detection at 325 nm. Optical densities at 365 nm were maintained near 0.1 so that inner-filtering of the irradiation could be neglected. […] Quantum efficiencies were calculated as (Iσt90%)^−1, where I is the irradiation intensity in einsteins (cm^−2s^−1), σ is the decadic extinction coefficient in cm^2mol^−1 (10^3 times ε, the usual extinction coefficient in M^−1cm^−1), and t90% is the irradiation time in seconds for 90% conversion to product. The total UV intensity, I, was measured by chemical actinometry with 6 mM potassium ferrioxalate in the same setup. Dark hydrolysis rates were measured similarly except without illumination.

[4] = In vitro measurements of two-photon uncaging and fluorescence cross-sections; assay type: physicochemical; settings: pH 7.2
Method: Measurements of cross-sections for two-photon uncaging were carried out in microcuvettes with cylindrical cavities having a 1 cm path length and 20 μL total volume (Type 26F, Starna). Femtosecond infrared pulses from a mode-locked titanium-sapphire laser (Spectra-Physics TSUNAMI, pumped by a Spectra-Physics MILLENNIUM) were aimed along the axis of the sample chamber and focused in its center with a 25 mm focal length lens (06LXP003/076, Melles Griot, Irvine, Calif.) optimized for infrared lasers. The pulse parameters were estimated by replacing the caged compound by a solution of fluorescein, a reference compound of known fluorescence quantum yield Qf2 (0.9) and two-photon absorbance cross-section δaF (30 and 38 GM at 740 and 800 nm respectively). The time-averaged fluorescence <F(t)>collected by the detector is given by equation (1)
<F(t)>=0.5φQf2δaFCF<I0^2(t)>∫S^2(r)dV (1)
where φ is the collection efficiency of the detector, CF is the concentration of fluorescein, <I0^2(t)> is the mean squared light intensity, S(r) is a unitless spatial distribution function, and the integral is over the volume of the microcuvette. The fluorescence emitted at right angles to the laser beam was measured through a 535 nm bandpass filter in front of a silicon photodiode radiometer (IL1700, International Light). The collection efficiency φ was estimated as Ay/(4πR^2n^2), where A is the area of the detector (0.38 cm^2), y is the fraction of the integrated emission spectrum transmitted by the interference filter (0.377), measured separately in a spectrofluorometer, R is the distance from the center of the cuvette to the detector (3.83 cm), and n is the refractive index of water (1.333). For photolysis of a caged compound or substrate, the number NP of molecules of product formed per unit time is (eq. 2):
NP=0.5Qu2δaSCS<I0^2(t)>∫S^2(r)dV (2)
where Qu2, δaS, and CS are the quantum efficiency for two-photon uncaging, absorbance cross-section, and concentration of the substrate, respectively. NP was measured by HPLC sampling of the microcuvette as for the one-photon photolysis. The uncaging action cross-section δu2 (≡Qu2δaS) can therefore be estimated by (eq. 3): [formula]
Similarly, when the substrate is also fluorescent, its two-photon fluorescence action cross-section δf2S (≡Qf2SδaS) can be estimated as (eq. 4): [formula]
Here the subscripts S and F distinguish values for the substrate and for the fluorescein reference. If one assumes that one- and two-photon quantum efficiencies are the same, then δu2/Qu1 and δf2S/Qf1S should both equal δaS. In fact, the former values are typically about twice the latter. All of them are directly proportional to the assumed value of Qf2 for fluorescein.

[5] = Mechanism of photolysis (triplet state lifetime); assay type: physicochemical
From the text: The halogenated coumarin derivatives have good dark stability, and high one-photon and two-photon uncaging efficiencies. Without being bound to any particular theory, halogenation of the coumarin may have increased the two-photon cross-sections by lowering the pKa of the chromophore below physiological pH and promoting formation of the more strongly absorbing anion. Also, the heavy atoms may promote intersystem crossing to the triplet, which is believed to be the photochemically reactive state. […] The mechanism of photolysis of compound 7 and compound 23 indicate that the solvolysis occurs via the triplet state with a lifetime of about 1 μs. […] Although compound 6 had the highest cross-section, its photolysis was complicated by multiple secondary photoproducts. The monobromo compound (compound 5) was much more tractable and easily formed caged compounds.

[6] = 515 nm rather than 365 nm (footnote g)

Row | Qu1 Quantum efficiency for uncaging with one-photon excitation at 365 nm [1] | εQu1 One-photon action cross section (product of molar absorptivity and photolysis quantum yield) at 365 nm [1] | ε Molar Absorptivity at 365 nm [2] | ε Molar Absorptivity at 400 nm [2] | λmax Wavelength of peak absorbance [2] | ε Molar absorptivity at absorbance peak [2] | half-life [3] | Qf1 Quantum efficiency for fluorescence with one-photon excitation [2] | λem [2] | δf (740 nm) fluorescence action cross-section for two-photon excitation [4] | δu (740 nm) uncaging action cross-section for two-photon excitation [4] | δf (800 nm) fluorescence action cross-section for two-photon excitation [4] | δu (800 nm) uncaging action cross-section for two-photon excitation [4] | Qu1 Quantum efficiency for uncaging with one-photon excitation (measured at 515 nm) [1, 6] | εQu1 One-photon action cross section (ε and Qu1 measured at 515 nm) [1, 6] | ε Molar Absorptivity (measured at 515 nm) [2, 6] | Compound | Neuron response amplitude, percent of maximum amplitude (rat cortical neurons) | Lifetime of triplet state through which solvolysis occurs [5]
1 | 0.019 | 302 M⁻¹ cm⁻¹ | 15,900 M^−1cm^−1 | 5,000 M^−1cm^−1 | 370 nm | 16,000 M^−1cm^−1 | 228 h | 0.37 | 474 nm | 9.68 ± 10^−50 cm^4s/photon | 1.07 ± 10^−50 cm^4s/photon | 3.22 ± 10^−50 cm^4s/photon | 0.34 ± 10^−50 cm^4s/photon |  |  |  | CC(=O)OCc1cc(=O)oc2cc(O)c(Cl)cc12 [Compound 4, 6-Chloro-7-hydroxycoumarin-4-ylmethyl acetate] |  | 
2 | 0.037 | 548 M⁻¹ cm⁻¹ | 14,800 M^−1cm^−1 | 5,000 M^−1cm^−1 | 370 nm | 15,000 M^−1cm^−1 | 183 h | 0.22 | 474 nm | 4.24 ± 10^−50 cm^4s/photon | 1.99 ± 10^−50 cm^4s/photon | 1.41 ± 10^−50 cm^4s/photon | 0.42 ± 10^−50 cm^4s/photon |  |  |  | CC(=O)OCc1cc(=O)oc2cc(O)c(Br)cc12 [Compound 5, 6-Bromo-7-hydroxycoumarin-4-ylmethyl acetate] |  | 
3 | 0.019 | 364 M⁻¹ cm⁻¹ | 19,200 M^−1cm^−1 | 7,560 M^−1cm^−1 | 369 nm | 19,550 M^−1cm^−1 |  |  |  |  | 0.89 ± 10^−50 cm^4s/photon |  | 0.42 ± 10^−50 cm^4s/photon |  |  |  | N[C@@H](CCC(=O)OCc1cc(=O)oc2cc(O)c(Br)cc12)C(=O)O [Compound 8, γ-(6-Bromo-7-hydroxycoumarin-4-yl)methyl glutamate] |  | 
4 |  |  |  |  |  |  |  |  | 538 nm |  | 1.6 10^−50 cm^4s/photon | 68 10^−50 cm^4s/photon | 2.6 10^−50 cm^4s/photon | 0.038 | 1,565 M^−1cm^−1 | 41,200 M^−1cm^−1 | O=c1ccc2c(CCl)c3ccc(O)cc3oc-2c1 [Compound 9] |  | 

Further lines, the compound ahead of its results:

Row | Compound | Qu1 Quantum efficiency for uncaging with one-photon excitation at 365 nm [1] | εQu1 One-photon action cross section (product of molar absorptivity and photolysis quantum yield) at 365 nm [1] | ε Molar Absorptivity at 365 nm [2] | ε Molar Absorptivity at 400 nm [2] | λmax Wavelength of peak absorbance [2] | ε Molar absorptivity at absorbance peak [2] | half-life [3] | Qf1 Quantum efficiency for fluorescence with one-photon excitation [2] | λem [2] | δf (740 nm) fluorescence action cross-section for two-photon excitation [4] | δu (740 nm) uncaging action cross-section for two-photon excitation [4] | δf (800 nm) fluorescence action cross-section for two-photon excitation [4] | δu (800 nm) uncaging action cross-section for two-photon excitation [4] | Qu1 Quantum efficiency for uncaging with one-photon excitation (measured at 515 nm) [1, 6] | εQu1 One-photon action cross section (ε and Qu1 measured at 515 nm) [1, 6] | ε Molar Absorptivity (measured at 515 nm) [2, 6] | Neuron response amplitude, percent of maximum amplitude (rat cortical neurons) | Lifetime of triplet state through which solvolysis occurs [5]
5 | NC(CCC(=O)OC(C(=O)O)c1ccccc1[N+](=O)[O-])C(=O)O (stereo not drawn) [Compound 1, γ-(α-carboxy-2-nitrobenzyl)glutamate, trifluoroacetate salt, reference compound] | 0.14 | 25 M⁻¹ cm⁻¹ | 180 M⁻¹ cm⁻¹ |  |  |  |  |  |  |  |  |  |  |  |  |  | less than 20% | 
6 | COc1cc(COC(=O)CCC(N)C(=O)O)c([N+](=O)[O-])cc1OC (stereo not drawn) [Compound 2, reference compound] | 0.004 | 29 M⁻¹ cm⁻¹ | 7,300 M^−1cm^−1 | 1,570 M^−1cm^−1 | 345 nm | 8,860 M^−1cm^−1 |  |  |  |  |  |  |  |  |  |  |  | 
7 | CC(=O)OCc1c(Br)c(=O)oc2c(Br)c(O)c(Br)cc12 [Compound 6, 3,6,8-Tribromo-7-hydroxycoumarin-4-ylmethyl acetate] | 0.065 | 630 M⁻¹ cm⁻¹ | 9,700 M^−1cm^−1 | 15,700 M^−1cm^−1 | 397 nm | 15,900 M^−1cm^−1 | 218 h | 0.16 | 498 nm |  | 0.96 ± 10^−50 cm^4s/photon |  | 3.1 ± 10^−50 cm^4s/photon |  |  |  |  | 
8 | CCOP(=O)(OCC)OCc1cc(=O)oc2cc(O)c(Br)cc12 [Compound 23, 6-Bromo-7-hydroxycoumarin-4-ylmethyl diethylphosphate] |  |  |  |  |  |  |  |  |  |  |  |  |  |  |  |  |  | about 1 μs
